Literature values as cited in PMC12080252, “Daphnia magna as an Alternative Model for (Simultaneous) Bioaccumulation and Chronic Toxicity Assessment—Controlled Exposure Study Indicates High Hazard of Heterocyclic PAHs” (Environmental Science & Technology, 2025).
“And” between values parts separate entries of the source, which are not always exact repeats. Equal values may be shown once.

Assays:
[1] = Table S10; ref SI ref 23 (UK Environment Agency Report); cited from earlier work
[2] = test system: fish; details: cited from earlier work; for half-life / log BCFL5% / log k2: fish, Table S10, ref SI ref 23
[3] = test system: D. magna or D. pulex; details: cited from earlier work
[4] = D. magna or D. pulex, ref SI refs 8, 10

Row | SMILES | log KOW [1] | half-life [2] | log BCFL5% [2] | log k2 [2] | further results
1 | Clc1cc2c(oc3c(Cl)c(Cl)c(Cl)c(Cl)c32)c(Cl)c1Cl [1,2,3,4,6,7,8-Heptachloro dibenzofuran] | 7.40 | 127.97 h | 3.16 | -2.27 h-1 | 
2 | Clc1cc2c(c(Cl)c1Cl)Oc1cc(Cl)c(Cl)c(Cl)c1O2 [1,2,3,6,7,8-Hexachloro dibenzo-p-dioxin] | 7.30 | 332.71 h | 3.64 | -2.68 h-1 | 
3 | Clc1cc2c(oc3cc(Cl)c(Cl)c(Cl)c32)c(Cl)c1Cl [1,2,3,6,7,8-Hexachloro dibenzofuran] | 7.30 | 213.28 h | 3.65 | -2.49 h-1 | 
4 | Clc1cc2c(cc1Cl)Oc1c(cc(Cl)c(Cl)c1Cl)O2 [1,2,3,7,8-Pentachlorodibenzo-p-dioxin] | 6.64 | 554.52 h | 3.97 | -2.90 h-1 | 
5 | Brc1cc(Br)c(-c2c(Br)cc(Br)cc2Br)c(Br)c1 [2,2',4,4',6,6'-hexa bromobiphenyl] | 7.20 | 2343.03 h | 4.55 | -3.53 h-1 | 
6 | Brc1ccc(Br)c(-c2cc(Br)ccc2Br)c1 [2,2',5,5'-tetra bromobiphenyl] | 6.50 | 1697.50 h | 4.86 | -3.39 h-1 | 
7 | Clc1cc2c(oc3c(Cl)c(Cl)c(Cl)cc32)c(Cl)c1Cl [2,3,4,6,7,8-Hexachloro dibenzofuran] | 7.30 | 166.36 h | 3.69 | -2.38 h-1 | 
8 | Clc1cc2oc3c(Cl)c(Cl)c(Cl)cc3c2cc1Cl [2,3,4,7,8-Pentachloro dibenzofuran] | 6.64 |  |  |  | 
9 | Clc1cc2oc3cc(Cl)c(Cl)cc3c2cc1Cl [2,3,7,8-Tetrachlorodibenzo furan] | 6.53 | 57.36 h | 2.89 | -1.92 h-1 | 
10 | Brc1cc(Br)c(-c2ccccc2)c(Br)c1 [2,4,6-tri bromobiphenyl] | 6.03 |  |  |  | 
11 | Cc1c2ccccc2cc2ccccc12 [9-methyl-anthracene] |  |  |  |  | half-life [3, 4]: 4.8 h; log k2 [3, 4]: -0.84 h-1
12 | c1ccc2c(c1)ccc1c3ccccc3sc21 [Benzo[b]naphtho[2,1-d]thiophene] |  |  |  |  | accumulation in water fleas ([3]; compared with fish): accumulate even more in water fleas
13 | c1ccc2c(c1)Cc1c-2ccc2ccccc12 [Benzofluorene, benzo[a]fluorene] |  |  |  |  | body burden ([3]; D. magna): 17600 µg/kg; log BAF*L5% ([3]; D. magna): 4.09 L kg^-1 lipid
14 | CC(C)OC(=O)C(C(=O)OC(C)C)=C1SCCS1 [Bis(1-methylethyl)ester, 1,3-dithiolan-2-ylidene propanedioic acid] | 2.88 | 3.65 h and 2.17 h | 1.45 and 1.59 and 1.65 | -0.72 h-1 and -0.49 h-1 | 
15 | CCCCCCCCCCC(C)c1ccc(S(=O)(=O)O)cc1 (stereo not drawn) [C-12-2-LAS] | 4.71 | 23.77 h | 2.16 | -1.54 h-1 | 
16 | CCCCCCCC(CCCC)c1ccc(S(=O)(=O)O)cc1 (stereo not drawn) [C-12-5-LAS] | 4.71 | 13.86 h | 1.00 | -1.30 h-1 | 
17 | CC(C)C(C(=O)OC(C#N)c1cccc(Oc2ccccc2)c1)c1ccc(Cl)cc1 (stereo not drawn) [Cyano(3-phenoxyphenyl)methyl ester, 4-chloro-alpha-(1-methylethyl) benzeneacetic acid] | 6.20 | 75.62 h | 2.64 | -2.04 h-1 | 
18 | ClC1C(Cl)C(Cl)C(Cl)C(Cl)C1Cl (stereo not drawn) [Cyclohexane, 1,2,3,4,5,6-hexachloro-, (1a,2a,3B,4a,5a,6B)-] | 3.72 | 12.60 h | 2.81 | -1.26 h-1 | 
19 | COc1ccc(C(c2ccc(OC)cc2)C(Cl)(Cl)Cl)cc1 [Methoxychlor] |  |  |  |  | accumulation in fish versus invertebrates (Figure 3B) ([2]; in vivo): accumulating in invertebrates but not in fish
20 | COP(=S)(OC)Oc1ccc(Cl)cc1C#N [Methyl isocyanothion] | 3.58 | 14.10 h | 2.09 | -1.31 h-1 | 
21 | CC(C)Oc1cccc(NC(=O)c2ccccc2C(F)(F)F)c1 [N-[3-(1-Methylethoxy)phenyl]-2-(trifluoromethyl) benzamide] | 3.70 | 5.78 h | 1.32 | -0.92 h-1 | 
22 | COP(=S)(OC)Oc1ccc(SC)c(C)c1 [O,O-Dimethyl O-[3-methyl-4-(methylthio)phenyl]ester phosphorothioic acid] | 4.17 |  |  |  | 
